Earlier results in US12692503B2, “Generation of acyl amino acids” (Modular Genetics, Inc., priority 2007, dated 2026).
*1 amine or outer side, *2 acyl side, *3 side chain or, on linkers, in order; H or OH if unused. Where a SMILES comes first, the peptide text is derived from it. Bridges are numbered along the chain shown (N, C = ends). [ ]: non-standard residue; d: D form. X1 = CC(C)CCCCCCCCC[C@H](CC(=O)[*:1])O[*:2]

Conditions: organic solvents and water

SMILES: CC(C)CCCCCCCCC[C@@H]1CC(=O)N[C@@H](CCC(=O)O)C(=O)N[C@@H](CC(C)C)C(=O)N[C@H](CC(C)C)C(=O)N[C@@H](C(C)C)C(=O)N[C@@H](CC(=O)O)C(=O)N[C@H](CC(C)C)C(=O)N[C@@H](CC(C)C)C(=O)O1 [surfactin] (EL[dL]VD[dL]L; linker N-C via X1)
- solubility: soluble in both organic solvents and water
